Experimental data as given in ChEMBL document CHEMBL3988442, “University of Dundee, Small-Polar-MMV Screening Library” (2021).
Several values for one entry are separate records, joined by “and”; a condition that tells them apart may be missing. Equal values may be shown once.

How the values were obtained:
Lysine--tRNA ligase = Lysine--tRNA ligase (Plasmodium falciparum (isolate 3D7), UniProt Q8IDJ8); experiment: Pf-KRS-1 (Lysyl-RNA Synthetase-1, KRS-1, cytosolic KRS) from Plasmodium falciparum. Inhibitor assay, 384 well plate, luminescence read.; assay type: functional
[1] = target: T1, Coenzyme A biosynthesis bifunctional protein CoaBC (Mycobacterium tuberculosis (strain ATCC 25618 / H37Rv), UniProt P9WNZ1); experiment: Biomol Green assay for MtCoaBC inhibitor, OD650 read; assay type: functional
T1 sequence (P9WNZ1 whole entry): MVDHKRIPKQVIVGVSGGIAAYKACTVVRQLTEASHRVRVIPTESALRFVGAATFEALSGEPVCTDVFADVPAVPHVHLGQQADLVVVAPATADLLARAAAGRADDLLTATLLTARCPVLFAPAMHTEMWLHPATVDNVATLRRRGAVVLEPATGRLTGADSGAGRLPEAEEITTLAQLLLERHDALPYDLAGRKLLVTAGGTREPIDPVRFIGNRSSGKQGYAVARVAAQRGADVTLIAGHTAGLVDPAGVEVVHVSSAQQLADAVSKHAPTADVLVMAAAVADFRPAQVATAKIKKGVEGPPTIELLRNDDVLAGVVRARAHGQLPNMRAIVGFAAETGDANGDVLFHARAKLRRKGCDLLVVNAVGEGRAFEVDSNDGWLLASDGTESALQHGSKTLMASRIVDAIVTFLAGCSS

Histidine--tRNA ligase = target: T2, Histidine--tRNA ligase (Leishmania infantum, UniProt A4I591); experiment: Leishmania infantum Histidine tRNA synthetase (LdHisRS); assay type: functional
T2 sequence (A4I591 whole entry): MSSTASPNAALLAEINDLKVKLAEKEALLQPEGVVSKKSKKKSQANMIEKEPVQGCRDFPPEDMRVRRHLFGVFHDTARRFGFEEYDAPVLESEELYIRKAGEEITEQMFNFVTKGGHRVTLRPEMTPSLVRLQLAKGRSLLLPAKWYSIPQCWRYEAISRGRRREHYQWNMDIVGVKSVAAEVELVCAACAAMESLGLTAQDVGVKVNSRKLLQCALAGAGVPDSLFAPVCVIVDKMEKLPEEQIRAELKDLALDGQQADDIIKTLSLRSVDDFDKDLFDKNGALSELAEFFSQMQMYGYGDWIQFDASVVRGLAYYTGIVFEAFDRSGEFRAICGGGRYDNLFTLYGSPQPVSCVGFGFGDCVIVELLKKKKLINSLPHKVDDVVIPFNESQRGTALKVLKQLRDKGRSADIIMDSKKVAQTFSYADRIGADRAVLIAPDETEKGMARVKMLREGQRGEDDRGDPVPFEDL

ClpP1P2 = ClpP1P2 (Mycobacterium tuberculosis (strain ATCC 25618 / H37Rv), UniProt P9WPC3+P9WPC5); experiment: in vitro assay to detect presence of AMC directly proportional to the activity of ClpP1P2. GHDDI collaboration.; assay type: functional
Plasmodium falciparum = experiment: Calibr Malaria Delayed Death Assay SOP; assay type: functional, organism-based; settings: for IC50: Plasmodium falciparum
[2] = microbe, parasite or virus in culture; settings: Mycobacterium tuberculosis, 96 h, read-out: pIC50 (converted)
[3] = microbe, parasite or virus in culture; settings: Mycobacterium tuberculosis, 72 h, read-out: pIC50 (converted)
Tryptophan--tRNA ligase = Tryptophan--tRNA ligase (Mycobacterium tuberculosis (strain ATCC 25618 / H37Rv), UniProt P9WFT3); experiment: Biochemical assay for Mt-TrpRS; assay type: functional
Leishmania donovani = experiment: Leishmania intramacrophage assay; assay type: functional, organism-based; settings: Leishmania donovani
[4] = In vitro enzyme assay to detect hydrolysis of chlorophenol red-beta-D-[…] directly proportional to the number of Toxoplasma stably expressing beta-galactosidase; assay type: functional, organism-based, Toxoplasma gondii; settings: for IC50: Toxoplasma gondii

ClpP1P2, sequence (P9WPC5 whole entry): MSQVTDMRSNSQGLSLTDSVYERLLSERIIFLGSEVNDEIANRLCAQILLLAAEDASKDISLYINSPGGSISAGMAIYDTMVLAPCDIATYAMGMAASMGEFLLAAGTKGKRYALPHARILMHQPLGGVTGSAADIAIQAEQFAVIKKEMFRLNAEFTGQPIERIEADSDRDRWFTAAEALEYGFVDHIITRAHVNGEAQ
ClpP1P2, sequence (P9WPC3 whole entry): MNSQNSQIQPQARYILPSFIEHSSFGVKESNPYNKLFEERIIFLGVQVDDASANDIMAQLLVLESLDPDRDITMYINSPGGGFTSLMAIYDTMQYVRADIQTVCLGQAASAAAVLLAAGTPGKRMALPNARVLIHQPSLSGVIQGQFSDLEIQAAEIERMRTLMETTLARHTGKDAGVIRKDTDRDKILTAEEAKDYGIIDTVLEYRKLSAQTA
Lysine--tRNA ligase, sequence (Q8IDJ8 whole entry): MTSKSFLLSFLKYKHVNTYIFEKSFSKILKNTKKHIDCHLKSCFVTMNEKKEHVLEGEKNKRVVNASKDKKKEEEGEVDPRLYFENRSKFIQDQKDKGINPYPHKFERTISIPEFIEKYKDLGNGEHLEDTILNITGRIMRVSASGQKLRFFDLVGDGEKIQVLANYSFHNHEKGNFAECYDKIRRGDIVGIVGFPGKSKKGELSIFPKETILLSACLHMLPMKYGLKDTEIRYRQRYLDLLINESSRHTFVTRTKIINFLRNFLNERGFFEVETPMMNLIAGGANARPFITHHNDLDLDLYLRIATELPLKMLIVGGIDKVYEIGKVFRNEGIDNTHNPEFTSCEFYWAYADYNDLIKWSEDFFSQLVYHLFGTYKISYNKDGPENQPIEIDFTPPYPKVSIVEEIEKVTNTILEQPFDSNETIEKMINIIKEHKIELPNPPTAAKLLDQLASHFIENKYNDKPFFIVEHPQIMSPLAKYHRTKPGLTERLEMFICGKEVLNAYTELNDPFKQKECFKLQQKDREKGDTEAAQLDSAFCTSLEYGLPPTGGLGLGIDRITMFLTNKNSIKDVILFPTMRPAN
Tryptophan--tRNA ligase, sequence (P9WFT3 whole entry): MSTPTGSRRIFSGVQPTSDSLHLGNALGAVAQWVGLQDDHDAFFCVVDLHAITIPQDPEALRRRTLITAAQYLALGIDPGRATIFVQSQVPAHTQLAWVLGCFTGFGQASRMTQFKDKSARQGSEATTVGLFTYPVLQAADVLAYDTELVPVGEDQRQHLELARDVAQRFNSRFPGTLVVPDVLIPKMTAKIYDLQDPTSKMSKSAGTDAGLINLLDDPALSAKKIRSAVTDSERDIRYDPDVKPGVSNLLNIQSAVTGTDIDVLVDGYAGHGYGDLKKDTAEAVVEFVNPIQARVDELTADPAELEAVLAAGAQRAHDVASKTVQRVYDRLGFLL

For `Cc1cc(C(=O)N2CCCC3(COCCN(CCN(C)C)C3)C2)no1` (configuration not stated), which IC50 (Lysine--tRNA ligase) is on record?
The IC50 was over 50.1 µM.

With `Cc1ccc(CS(=O)(=O)NCc2ccco2)cc1` as the compound, how does the IC50 (Lysine--tRNA ligase) read?
Its IC50 is over 50.1 µM.

With `Cc1ccc(CN2CCN(Cc3ccncc3)[C@@H]3CS(=O)(=O)C[C@@H]32)cc1` as the compound, how does the IC50 (Lysine--tRNA ligase) read?
Its IC50 is over 50.1 µM.

For `O=C(NCC1(O)CCCCC1)c1coc(COc2cccc(F)c2)n1`, which IC50 (Lysine--tRNA ligase) is on record?
Its IC50 is over 50.1 µM.

With `COc1ccc(-n2nnc(C(=O)NCC3CCCCC3)n2)cc1` as the compound, how does the IC50 (Lysine--tRNA ligase) read?
Its IC50 is over 50.1 µM.

For `Cc1nc(NC(=O)CN2CCOC(Cn3cccn3)C2)sc1C` (configuration not stated), which IC50 (Lysine--tRNA ligase) is on record?
Its IC50 is over 50.1 µM.

For `O=C(C(O)c1ccccc1Cl)N1CCCN(Cc2cccnc2)CC1` (configuration not stated), which IC50 (Lysine--tRNA ligase) is on record?
The IC50 was over 50.1 µM.

Which IC50 (Lysine--tRNA ligase) does the source give for `CC1CCC(N2Cc3nc(N)ncc3C2=O)CC1` (configuration not stated) here?
Its IC50 is over 50.1 µM.

With `Cc1ncc2c(n1)CN(CC1CCCCO1)CC2` (configuration not stated) as the compound, how does the IC50 (Lysine--tRNA ligase) read?
The IC50 was 35.9 µM.

With `CCOCC1CN(Cc2ccc(OC)cc2)Cc2nn(CC3CC3)cc21` (configuration not stated) as the compound, how does the IC50 (Lysine--tRNA ligase) read?
The IC50 was over 50.1 µM.

Which IC50 (Lysine--tRNA ligase) does the source give for `O=C(NCc1csc(Br)c1)c1ccncc1` here?
The IC50 was over 50.1 µM.

For `O=C(NCCc1ccccn1)C1=NN(c2ccccc2)C(=O)CN1`, which IC50 (Lysine--tRNA ligase) is on record?
The IC50 was over 50.1 µM.

With `Cc1nc(CN2CCCC(N(C)Cc3nc(CC(C)C)no3)C2)no1` (configuration not stated) as the compound, how does the IC50 (Lysine--tRNA ligase) read?
The IC50 was over 50.1 µM.

Which IC50 [1] does the source give for `COc1ccc(-n2c(CCC(=O)O)nc3ccccc32)cc1CO` here?
The IC50 was over 50.1 µM.

What about the IC50 (Histidine--tRNA ligase) of the same compound?
The IC50 was 68.6 µM and 44 µM.

Which IC50 (Lysine--tRNA ligase) does the source give for `CCOc1ccc(CC(CNC(=O)c2ccc(C)o2)C(N)=O)cc1` (configuration not stated) here?
The IC50 was over 50.1 µM.

With `O=C(c1ccccn1)N1CCCN(Cc2nnc(C3CC3)o2)CC1` as the compound, how does the IC50 (Lysine--tRNA ligase) read?
Its IC50 is over 50.1 µM.

For `CN(C)Cc1cnc2n1CCN(C(=O)Cc1ccc(F)cc1)CC2`, which IC50 (Lysine--tRNA ligase) is on record?
Its IC50 is over 50.1 µM.

For `CC(C)CN1Cc2nc(N)ncc2C1=O`, which IC50 (Lysine--tRNA ligase) is on record?
The IC50 was 35.6 µM.

For `CCN(Cc1ccc2cccc(O)c2n1)CC1CCCO1` (configuration not stated), which IC50 [1] is on record?
Its IC50 is over 30.2 µM.

What about the IC50 (Histidine--tRNA ligase) of the same compound?
Its IC50 is 18.6 µM and 12.3 µM.

What does the source list for `COc1ccc(-n2cc(CNC(=O)c3ccc[nH]3)nn2)cc1`?
IC50 [1]: > 30.2 µM; IC50 (Histidine--tRNA ligase): 33.4 µM and 45.8 µM

For `Cc1nccn1-c1cccc(C2CCCN2)n1` (configuration not stated), which IC50 [1] is on record?
The IC50 was over 30.2 µM.

And the IC50 (ClpP1P2)?
Its IC50 is over 100 µM.

Which IC50 [1] does the source give for `Cn1cc(CNC2CCCOc3c2ccc2ccccc32)cn1` (configuration not stated) here?
Its IC50 is over 30.2 µM.

And the pIC50 (Plasmodium falciparum)?
The pIC50 was 6.02.

What about the IC50 (Plasmodium falciparum) of the same compound?
The IC50 was 0.871 µM.

With `Cc1nc(-c2ccc(CC(=O)N3CCN(C(=O)C(C)C)CC3)cc2)cs1` as the compound, how does the IC50 [1] read?
The IC50 was over 30.2 µM.

And the IC50 (Histidine--tRNA ligase)?
Its IC50 is 24.8 µM and 12.4 µM.

What about the IC50 (ClpP1P2) of the same compound?
Its IC50 is 8.96 µM.

With `CC(C)(C)CN1CCN2C(=O)N(C3CCCCC3)C[C@H]2C1` as the compound, how does the IC50 [1] read?
The IC50 was over 30.2 µM.

What about the IC50 [2] of the same compound?
Its IC50 is over 50.1 µM.

What about the IC50 [3] of the same compound?
The IC50 was over 50.1 µM.

With `COc1ccc(C(O)CN2CC(n3nc(C)cc3C)C2)cc1` (configuration not stated) as the compound, how does the IC50 [1] read?
The IC50 was over 30.2 µM.

And the pIC50 (Plasmodium falciparum)?
The pIC50 was 5.759.

And the IC50 (Plasmodium falciparum)?
The IC50 was 1.76 µM.

Which IC50 [1] does the source give for `c1ccc(Cn2cc(CNCC3CNc4ccnn4C3)cn2)cc1` (configuration not stated) here?
Its IC50 is over 30.2 µM.

And the IC50 (Tryptophan--tRNA ligase)?
Its IC50 is over 195 µM.

With `Cc1ccc(C)n1-c1ccc(C(=O)NCCNc2ncccn2)cc1` as the compound, how does the IC50 [1] read?
Its IC50 is over 30.2 µM.

And the IC50 (Histidine--tRNA ligase)?
Its IC50 is over 100 µM.

For `Cc1cc(CCC2CN(CC3(O)CCCCC3)CCO2)ncn1` (configuration not stated), which IC50 [1] is on record?
Its IC50 is over 30.2 µM.

And the IC50 (Tryptophan--tRNA ligase)?
Its IC50 is over 195 µM.

With `COc1cccc(CNc2cc(C)nc(-c3ccncc3)n2)c1OC` as the compound, how does the IC50 [1] read?
Its IC50 is over 30.2 µM.

And the IC50 (Histidine--tRNA ligase)?
Its IC50 is 91.8 µM and > 100 µM.

And the pIC50 (Plasmodium falciparum)?
The pIC50 was 6.336.

What about the IC50 (Plasmodium falciparum) of the same compound?
The IC50 was 0.465 µM.

What does the source list for `CS(=O)(=O)N1CCC2(CC1)CN(CCn1cccn1)C(=O)CO2`?
IC50 [1]: > 50.1 µM; IC50 (Histidine--tRNA ligase): > 100 µM

Which IC50 [1] does the source give for `O=C(NCc1cccnc1N1CCc2ccccc2C1)c1cc(=O)[nH][nH]1` here?
Its IC50 is over 30.2 µM.

And the IC50 (Histidine--tRNA ligase)?
Its IC50 is 44.8 µM and 45.1 µM.

What does the source list for `CC(C)Cc1nc(CO)n(-c2ccc3c(c2)OCCO3)n1`?
IC50 [1]: > 30.2 µM; IC50 (ClpP1P2): > 100 µM

For `COc1ccc(-c2nc(CCNc3nnc(C)c(C)c3C#N)co2)cc1`, which IC50 [1] is on record?
Its IC50 is over 30.2 µM.

And the IC50 (Histidine--tRNA ligase)?
Its IC50 is 58.1 µM and 60.7 µM.

Which IC50 [1] does the source give for `CCn1cc(-c2cc(C(F)(F)F)nc(NC3CCCC3)n2)c(C)n1` here?
Its IC50 is over 30.2 µM.

And the IC50 (Leishmania donovani)?
The IC50 was over 50.1 µM.

And the pIC50 [4]?
Its pIC50 is 4.783.

What about the IC50 [4] of the same compound?
The IC50 was 17.8 µM.

What does the source list for `Cc1n[nH]c(C)c1-c1c(C#N)c(N)nc2c1CCc1[nH]ccc1-2`?
IC50 [1]: > 30.2 µM; IC50 (Histidine--tRNA ligase): 16.8 µM and 18.1 µM; IC50 (ClpP1P2): > 100 µM

Which results are given for `COc1c(Cl)cc(Cl)cc1CN1CCC(C(N)=O)C1` (configuration not stated)?
IC50 [1]: > 30.2 µM; IC50 [2]: > 50.1 µM; IC50 [3]: > 50.1 µM

For `N#Cc1ccsc1N1CCC(Sc2ccncc2)C1=O` (configuration not stated), which IC50 [1] is on record?
Its IC50 is over 30.2 µM.

And the IC50 (Histidine--tRNA ligase)?
Its IC50 is 17.7 µM and 33 µM.

Which results are given for `O=S(=O)(CCCn1cncn1)Cc1ccc(F)cc1Cl`?
IC50 [1]: 4.13 µM and 4.68 µM; IC50 (Histidine--tRNA ligase): 10.5 µM and 17.6 µM

Which IC50 [1] does the source give for `Cc1ccc(C(=O)Nc2c(C(=O)N(C)C)nn(C)c2C)cc1C` here?
Its IC50 is over 30.2 µM.

And the IC50 [4]?
Its IC50 is over 50.1 µM.

For `NCC1Cc2cc(Oc3cc(F)c(CN4CCCC4)c(F)c3)ccc2O1` (configuration not stated), which IC50 [1] is on record?
Its IC50 is over 30.2 µM.

And the IC50 [4]?
The IC50 was 20.4 µM.

And the IC50 (Histidine--tRNA ligase)?
Its IC50 is 30.2 µM and 36.9 µM.

And the IC50 (ClpP1P2)?
Its IC50 is 20.8 µM.

For `c1csc(C2(NCc3csc(C4CC4)n3)CCCC2)n1`, which IC50 [1] is on record?
The IC50 was over 30.2 µM.

And the IC50 (Histidine--tRNA ligase)?
Its IC50 is 57.3 µM and 56.6 µM.
